Results from patent US20070049564A1 (Wyeth, priority 2005, published 2007).
Values after ≈ are worked out from the molar mass of the structure shown. Read-outs that look alike come from different tables or passages of the source.

Assays:
[1] = tested on: E. faecalis GC 2267; assay: MIC, broth microdilution; conditions: Enterococcus faecalis
[2] = tested on: E. coli GC 2235; assay: MIC, broth microdilution; conditions: Escherichia coli
[3] = tested on: S. agalactiae GC 4564; assay: MIC, broth microdilution; conditions: Streptococcus agalactiae
[4] = tested on: E. coli GC 6465; assay: MIC, broth microdilution; conditions: Escherichia coli
[5] = tested on: S. aureus GC 4536; assay: MIC, broth microdilution; conditions: Staphylococcus aureus
[6] = tested on: S. aureus GC 6467; assay: MIC, broth microdilution; conditions: Staphylococcus aureus
[7] = tested on: c. albicans GC 3066; assay: MIC, broth microdilution
[8] = tested on: S. aureus GC 1079; assay: MIC, broth microdilution; conditions: Staphylococcus aureus
[9] = tested on: Staph. aureus Smith; assay: In vivo activity (oral, iv; ED50) against Staph. aureus Smith in mice
[10] = tested on: S. pneumoniae+ GC 4465; assay: MIC, broth microdilution; conditions: Streptococcus pneumoniae
[11] = tested on: E. faecalis GC 4555; assay: MIC, broth microdilution; conditions: Enterococcus faecalis
[12] = tested on: S. typhimurium GC 2172; assay: MIC, broth microdilution; conditions: Salmonella enterica, TYPHIMURIUM
[13] = tested on: E. coli GC 4559; assay: MIC, broth microdilution; conditions: Escherichia coli
[14] = tested on: S. aureus GC 1131; assay: MIC, broth microdilution; conditions: Staphylococcus aureus
[15] = tested on: E. coli GC 2272; assay: MIC, broth microdilution; conditions: Escherichia coli
[16] = tested on: E. faecalis GC 2242; assay: MIC, broth microdilution; conditions: Enterococcus faecalis
[17] = tested on: E. coli GC 1073; assay: MIC, broth microdilution; conditions: Escherichia coli
[18] = tested on: E. coli GC 4560; assay: MIC, broth microdilution; conditions: Escherichia coli
[19] = tested on: S. epidermidis GC 4935; assay: MIC, broth microdilution; conditions: Staphylococcus epidermidis
[20] = tested on: S. pneumoniae* GC 4465; assay: MIC, broth microdilution; conditions: Streptococcus pneumoniae
[21] = read-out: MINIMAL INHIBITORY CONCENTRATION MIC, pre-incubated in Human Serum
[22] = read-out: MINIMAL INHIBITORY CONCENTRATION MIC, pre-incubated in Mouse Serum
[23] = read-out: MINIMAL INHIBITORY CONCENTRATION MIC, pre-incubated in Water

MIC ([1]; GC2267, read-out: MINIMAL INHIBITORY CONCENTRATION MIC, pre-incubated in Human Serum): 4 µg/mL (≈ 5.14 µM)
MIC ([1]; GC2267, read-out: MINIMAL INHIBITORY CONCENTRATION MIC, pre-incubated in Mouse Serum): 1 µg/mL (≈ 1.29 µM)
MIC ([1]; GC2267, read-out: MINIMAL INHIBITORY CONCENTRATION MIC, pre-incubated in Water): 4 µg/mL (≈ 5.14 µM)
MIC ([2]; GC2235, read-out: MINIMAL INHIBITORY CONCENTRATION MIC, pre-incubated in Human Serum): 16 µg/mL (≈ 20.6 µM)
MIC ([2]; GC2235, read-out: MINIMAL INHIBITORY CONCENTRATION MIC, pre-incubated in Mouse Serum): 1 µg/mL (≈ 1.29 µM)
MIC ([2]; GC2235, read-out: MINIMAL INHIBITORY CONCENTRATION MIC, pre-incubated in Water): > 64 µg/mL
MIC ([3]; GC4564, read-out: MINIMAL INHIBITORY CONCENTRATION MIC, pre-incubated in Human Serum): 1 µg/mL (≈ 1.29 µM)
MIC ([3]; GC4564, read-out: MINIMAL INHIBITORY CONCENTRATION MIC, pre-incubated in Mouse Serum): 0.5 µg/mL (≈ 0.643 µM)
MIC ([3]; GC4564, read-out: MINIMAL INHIBITORY CONCENTRATION MIC, pre-incubated in Water): 1 µg/mL (≈ 1.29 µM)
MIC ([4]; GC6465, read-out: MINIMAL INHIBITORY CONCENTRATION MIC, pre-incubated in Human Serum): > 64 µg/mL
MIC ([4]; GC6465, read-out: MINIMAL INHIBITORY CONCENTRATION MIC, pre-incubated in Mouse Serum): 2 µg/mL (≈ 2.57 µM)
MIC ([4]; GC6465, read-out: MINIMAL INHIBITORY CONCENTRATION MIC, pre-incubated in Water): > 64 µg/mL
MIC ([5]; GC4536, read-out: MINIMAL INHIBITORY CONCENTRATION MIC, pre-incubated in Human Serum): 1 µg/mL (≈ 1.29 µM)
MIC ([5]; GC4536, read-out: MINIMAL INHIBITORY CONCENTRATION MIC, pre-incubated in Mouse Serum): 1 µg/mL (≈ 1.29 µM)
MIC ([5]; GC4536, read-out: MINIMAL INHIBITORY CONCENTRATION MIC, pre-incubated in Water): 4 µg/mL (≈ 5.14 µM)
MIC ([6]; GC6467, read-out: MINIMAL INHIBITORY CONCENTRATION MIC, pre-incubated in Human Serum): 2 µg/mL (≈ 2.57 µM)
MIC ([6]; GC6467, read-out: MINIMAL INHIBITORY CONCENTRATION MIC, pre-incubated in Mouse Serum): 1 µg/mL (≈ 1.29 µM)
MIC ([6]; GC6467, read-out: MINIMAL INHIBITORY CONCENTRATION MIC, pre-incubated in Water): 4 µg/mL (≈ 5.14 µM)
MIC ([7]; Candida albicans, GC3066, read-out: MINIMAL INHIBITORY CONCENTRATION MIC): > 64 µg/mL
MINIMAL INHIBITORY CONCENTRATION MIC ([7]; pre-incubated in Human Serum): >64 UG/ML
MINIMAL INHIBITORY CONCENTRATION MIC ([7]; pre-incubated in Mouse Serum): >64 UG/ML
MIC ([8]; GC1079, read-out: MINIMAL INHIBITORY CONCENTRATION MIC, pre-incubated in Human Serum): 2 µg/mL (≈ 2.57 µM)
MIC ([8]; GC1079, read-out: MINIMAL INHIBITORY CONCENTRATION MIC, pre-incubated in Mouse Serum): 1 µg/mL (≈ 1.29 µM)
MIC ([8]; GC1079, read-out: MINIMAL INHIBITORY CONCENTRATION MIC, pre-incubated in Water): 2 µg/mL (≈ 2.57 µM)
MIC [10, 21]: 2 µg/mL (≈ 2.57 µM)
MIC [10, 22]: 2 µg/mL (≈ 2.57 µM)
MIC [10, 23]: 4 µg/mL (≈ 5.14 µM)
MIC ([11]; GC4555, read-out: MINIMAL INHIBITORY CONCENTRATION MIC, pre-incubated in Human Serum): 4 µg/mL (≈ 5.14 µM)
MIC ([11]; GC4555, read-out: MINIMAL INHIBITORY CONCENTRATION MIC, pre-incubated in Mouse Serum): 1 µg/mL (≈ 1.29 µM)
MIC ([11]; GC4555, read-out: MINIMAL INHIBITORY CONCENTRATION MIC, pre-incubated in Water): 4 µg/mL (≈ 5.14 µM)
MIC [12, 21]: > 64 µg/mL
MIC [12, 22]: 4 µg/mL (≈ 5.14 µM)
MIC [12, 23]: > 64 µg/mL
MIC ([13]; GC4559, read-out: MINIMAL INHIBITORY CONCENTRATION MIC, pre-incubated in Human Serum): 64 µg/mL (≈ 82.3 µM)
MIC ([13]; GC4559, read-out: MINIMAL INHIBITORY CONCENTRATION MIC, pre-incubated in Mouse Serum): 2 µg/mL (≈ 2.57 µM)
MIC ([13]; GC4559, read-out: MINIMAL INHIBITORY CONCENTRATION MIC, pre-incubated in Water): > 64 µg/mL
MIC ([14]; GC1131, read-out: MINIMAL INHIBITORY CONCENTRATION MIC, pre-incubated in Human Serum): 2 µg/mL (≈ 2.57 µM)
MIC ([14]; GC1131, read-out: MINIMAL INHIBITORY CONCENTRATION MIC, pre-incubated in Mouse Serum): 1 µg/mL (≈ 1.29 µM)
MIC ([14]; GC1131, read-out: MINIMAL INHIBITORY CONCENTRATION MIC, pre-incubated in Water): 2 µg/mL (≈ 2.57 µM)
MIC ([15]; GC2272, read-out: MINIMAL INHIBITORY CONCENTRATION MIC, pre-incubated in Human Serum): 16 µg/mL (≈ 20.6 µM)
MIC ([15]; GC2272, read-out: MINIMAL INHIBITORY CONCENTRATION MIC, pre-incubated in Mouse Serum): 1 µg/mL (≈ 1.29 µM)
MIC ([15]; GC2272, read-out: MINIMAL INHIBITORY CONCENTRATION MIC, pre-incubated in Water): > 64 µg/mL
MIC ([16]; GC2242, read-out: MINIMAL INHIBITORY CONCENTRATION MIC, pre-incubated in Human Serum): 4 µg/mL (≈ 5.14 µM)
MIC ([16]; GC2242, read-out: MINIMAL INHIBITORY CONCENTRATION MIC, pre-incubated in Mouse Serum): 1 µg/mL (≈ 1.29 µM)
MIC ([16]; GC2242, read-out: MINIMAL INHIBITORY CONCENTRATION MIC, pre-incubated in Water): 4 µg/mL (≈ 5.14 µM)
MIC ([17]; GC1073, read-out: MINIMAL INHIBITORY CONCENTRATION MIC, pre-incubated in Human Serum): 32 µg/mL (≈ 41.1 µM)
MIC ([17]; GC1073, read-out: MINIMAL INHIBITORY CONCENTRATION MIC, pre-incubated in Mouse Serum): 2 µg/mL (≈ 2.57 µM)
MIC ([17]; GC1073, read-out: MINIMAL INHIBITORY CONCENTRATION MIC, pre-incubated in Water): > 64 µg/mL
MIC ([18]; GC4560, read-out: MINIMAL INHIBITORY CONCENTRATION MIC, pre-incubated in Human Serum): 4 µg/mL (≈ 5.14 µM)
MIC ([18]; GC4560, read-out: MINIMAL INHIBITORY CONCENTRATION MIC, pre-incubated in Mouse Serum): 1 µg/mL (≈ 1.29 µM)
MIC ([18]; GC4560, read-out: MINIMAL INHIBITORY CONCENTRATION MIC, pre-incubated in Water): 16 µg/mL (≈ 20.6 µM)
MIC ([19]; GC4935, read-out: MINIMAL INHIBITORY CONCENTRATION MIC, pre-incubated in Human Serum): 4 µg/mL (≈ 5.14 µM)
MIC ([19]; GC4935, read-out: MINIMAL INHIBITORY CONCENTRATION MIC, pre-incubated in Mouse Serum): 2 µg/mL (≈ 2.57 µM)
MIC ([19]; GC4935, read-out: MINIMAL INHIBITORY CONCENTRATION MIC, pre-incubated in Water): 4 µg/mL (≈ 5.14 µM)
MIC [20, 21]: 0.5 µg/mL (≈ 0.643 µM)
MIC [20, 22]: 0.25 µg/mL (≈ 0.321 µM)
MIC [20, 23]: 0.5 µg/mL (≈ 0.643 µM)
Structure (SMILES): Cc1ccc(C(=O)OCOC(=O)N(CC(=O)Nc2cc(N(C)C)c3c(c2O)C(=O)C2=C(O)[C@]4(O)C(=O)C(C(N)=O)=C(O)[C@@H](N(C)C)[C@@H]4C[C@@H]2C3)C(C)(C)C)cc1 [Example 47]
ED50 ([9]; Staphylococcus aureus, in Mus musculus, iv, read-out: ED50 SIV (Staph aureus Smith)): 1.2 mg/kg
ED50 ([9]; Staphylococcus aureus, in Mus musculus, po, read-out: ED50 SOD (Staph aureus Smith)): 14 mg/kg
ED50 ([9]; Staphylococcus aureus, in Mus musculus, po, read-out: ED50 Staph Smith SOD): 14 mg/kg
ED50 ([9]; iv, read-out: ED50 Staph Smith SIV): 1.2 mg/kg
